Experimental data published in patent US20240110200A1, “Recombinant AAV Vectors and Gene Therapies for Treating Brain Diseases” (City University of Hong Kong, priority 2022, published 2024).

Key:
[1] = system: GFAP+ cells / Camkll+ cells in cortex and hippocampus; experiment: GFAP and Camkll immunostaining of TLE mouse brain; format: in vivo, C57BL/6J male mice; conditions: right intrahippocampal KA-injection; n=10 sections from N=4 mice
Experimental: For immunohistochemistry, mice are deeply anaesthetized by an overdose of pentobarbital sodium. Mice are transcardially perfused with 30 mL cold phosphate-buffered saline (PBS) and 30 mL 4% (w/v) paraformaldehyde (4% PFA). Brain tissue is removed, post-fixed with 4% PFA, and treated with 30% (w/v) sucrose in 4% PFA at 4° C. for 2˜3 days. Brain tissue is sectioned on a cryostat (30 μm for standard staining and 10 μm for Super-Resolution imaging) (Leica CM3500, Germany) and preserved with antifreeze buffer (20% (v/v) glycerine and 30% (v/v) ethylene glycol diluted in PBS) at −20° C. For immunostaining and statistics of co-labelled neurons and axonal synapses in the AC, serial sections containing the AC are selected for analysis. […]
Images are took at 20× magnification and montaged together with the same laser settings between the parallel studies. […] For quantification of co-localization, neurons expressing the indicated reporter are counted using only the corresponding color channel. Then, among these cells, the number of neurons co-expressing the marker of interest is counted by the Nikon imaging analysis software (NIS-Elements Viewer 5.21). […] A neuron is positive for a given marker if the corresponding signal is above background fluorescence. The ratio of neurons co-expressing both markers over the total number of cells expressing only the reporter is then calculated. […]

[2] = system: KA-induced chronic epileptic mice; experiment: Intrahippocampal kainic acid injection-induced chronic epilepsy (TLE) model, seizure monitoring by MMRS; format: in vivo, C57BL/6J male mice; conditions: 650 nL KA (0.3 mg/mL) intrahippocampal, no intervention
Experimental: C57BL/6J male mice (6˜7 weeks old) are anaesthetized with pentobarbital (100 mg/kg), a craniotomy is performed perpendicularly to the […] of the hippocampus (−2.06 mm posterior to the bregma, −1.80 mm to the midline, and −1.60 mm to the dura), and 650 nL KA (0.3 mg/mL) is injected at a speed of 30 nL/min.
Upon recovering from the anesthesia, the mice are monitored for at least an hour for any signs of acute epileptic seizures before being placed back into their cages for routine monitoring. For the mice only injected with KA (FIG. S16), they are monitored for 16 weeks after the KA injection.
The mice are housed separately under a standard 12-h light/dark cycle and stable temperature (23-25° C.) with free access to food and water. Each KA-injected mouse is monitored and recorded 24 h per day using a 360-smart camera for a minimum of three weeks after surgery. […]
The seizures of the mice are evaluated in a blinded manner; the examiners of the video are blind to the history of the mice. […]
After the C57bL/6J male mice (9-10 weeks old) show a stable occurrence of spontaneous recurrent seizures, epileptic mice are randomly divided into two groups (experimental and control). The daily seizure occurrence is recorded for 2 weeks as the pre-treatment baseline for each mouse (FIG. 6). […]

## C=C(C)[C@H]1CN[C@H](C(=O)O)[C@H]1CC(=O)O [KA, Kainic Acid]
[1]
  GFAP+ cells in the right hippocampus after 16 weeks: 748.56±74.88 per mm^2
[2]
  recurrent convulsive seizures of stages 3 to 5 at week 4: 5.2±1.52 seizures per day
